Assay results reported in PubChem BioAssay (NCI).
Where “and” joins values, the source holds several entries; their conditions need not be identical. Equal entries are not always repeated.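 Tested at 5 concentrations; 48 h exposure; 96-well plates; endpoints linearly interpolated, else capped at highest concentration. GI50 marks 50% less growth. TGI: concentration producing complete growth inhibition.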

What was measured:
Assay in all cases: inhibition of tumour cell growth, NCI panel, 48 h
T-47D breast = test system: T-47D breast
SN12C renal = test system: SN12C renal
SNB-19 CNS = test system: SNB-19 CNS
SK-MEL-5 melanoma = test system: SK-MEL-5 melanoma
SF-295 CNS = test system: SF-295 CNS
SK-MEL-2 melanoma = test system: SK-MEL-2 melanoma
RPMI-8226 leukemia = test system: RPMI-8226 leukemia
786-0 renal = test system: 786-0 renal
SF-268 CNS = test system: SF-268 CNS
HL-60(TB) leukemia = test system: HL-60(TB) leukemia

Compound	TGI (T-47D breast)	TGI (SN12C renal)	TGI (SNB-19 CNS)	TGI (SK-MEL-5 melanoma)	TGI (SF-295 CNS)	TGI (SK-MEL-2 melanoma)	TGI (RPMI-8226 leukemia)	TGI (786-0 renal)	GI50 (T-47D breast)	TGI (SF-268 CNS)	TGI (HL-60(TB) leukemia)
O=S(=O)(O)c1c(Cl)cc(O)c2ncccc12	> 100 µM	> 100 µM	> 100 µM	> 100 µM	> 100 µM	> 100 µM	> 100 µM	> 100 µM			
CC[C@]1(O)C[C@H]2CN(CCc3c([nH]c4ccccc34)[C@@](C(=O)OC)(c3cc4c(cc3OC)N(C=O)[C@H]3[C@@](O)(C(=O)OC)[C@H](OC(C)=O)[C@]5(CC)C=CCN6CC[C@]43[C@@H]65)C2)C1	399 µM and 171 µM		43.1 µM and 17.7 µM		0.141 µM and 0.536 µM				112 µM	8.13 µM and 31.2 µM and 79.2 µM	
COc1cc(C=O)ccc1Oc1nnnn1-c1ccccc1	58 µM	> 100 µM	> 100 µM	59.2 µM	> 100 µM	> 100 µM	98.2 µM	> 100 µM		> 100 µM	
CS(=O)(=O)c1ccc(/C=N/NC(N)=S)cc1	> 100 µM	> 100 µM	> 100 µM	> 100 µM	> 100 µM		> 100 µM	> 100 µM		> 100 µM	> 100 µM
O=C1/C(=C/c2ccccc2)CCCC1CN1CCCCC1 (stereo not given)	3.92 µM	18.5 µM	29.1 µM	15.6 µM	33.6 µM	15.8 µM	> 100 µM	4.26 µM		3.59 µM	
O=c1c2cc(-c3ccccc3)sc2nc2n1N=C(c1ccccc1)CS2	> 100 µM	> 100 µM		79.3 µM	44.2 µM		> 100 µM	38 µM		> 100 µM	> 100 µM
CC1CC(C)C(O)C(C2CC(CC(=O)NC3CCCCC3)CC(=O)O2)C1 (stereo not given)	> 100 µM	> 100 µM	> 100 µM	> 100 µM	> 100 µM		> 100 µM	> 100 µM		> 100 µM	> 100 µM
O=C(O)c1cc2ccccc2c(N=Nc2ccccc2)c1O	> 100 µM	74.1 µM	79.6 µM	28.2 µM	25.9 µM		> 100 µM	> 100 µM		> 100 µM	33.1 µM
CC1(C)CCC[C@@]2(C)C1CCC1(C)C(CCc3ccoc3)/C(=C/OS(=O)(=O)O)CCC12 (stereo not given in full) (tested in a mixture with another compound)		> 100 µM	> 100 µM	> 100 µM	> 100 µM	> 100 µM	> 100 µM	> 100 µM		> 100 µM	> 100 µM
Oc1ccc(-c2csc(NNC3=NC/C(=C/c4ccc5c(c4)OCO5)S3)n2)cc1O	> 100 µM	> 100 µM	> 100 µM	> 100 µM	> 100 µM	> 100 µM		> 100 µM			
CC(C)(C)OC(=O)NCCCCC(N)C(N)=O (stereo not given)	> 100 µM	> 100 µM	> 100 µM	> 100 µM	> 100 µM	> 100 µM	> 100 µM	> 100 µM		> 100 µM	
NCCSc1nc2ccccc2s1		> 100 µM	> 100 µM	> 100 µM	73.2 µM	82.2 µM	95.7 µM	71.5 µM		86 µM	> 100 µM
CCC(C)n1c(C)nc2c1C(=O)c1ccccc1C2=O (stereo not given)		> 100 µM	> 100 µM	> 100 µM	> 100 µM	> 100 µM		> 100 µM		> 100 µM	> 100 µM
O=C(Nc1nnc(-c2ccccc2)o1)C(SC(=S)N1CCCCC1)c1ccccc1 (stereo not given)	> 100 µM	42 µM	> 100 µM	28.2 µM	> 100 µM	51.1 µM	> 100 µM	87.5 µM			8.38 µM
Cc1ccccc1C(=O)c1c(O)c2c(c(O)c1Br)CCCC2		33.3 µM	54.7 µM	35.4 µM	47.9 µM	31.3 µM	57.5 µM	27.9 µM		29 µM	23 µM
COc1cc(-c2cn(S(=O)(=O)c3ccc(C)cc3)c3ccccc23)nc(-c2cn(S(=O)(=O)c3ccc(C)cc3)c3ccccc23)n1	> 100 µM	> 100 µM	32.1 µM		> 91.7 µM	> 100 µM	> 100 µM	> 100 µM			5.24 µM
C/C=C/[C@H]1O[C@@](O)([C@@H](C)[C@H](O)[C@H](C)[C@H]2OC(=O)/C(OC)=C/C(C)=C/[C@@H](C)[C@@H](O)[C@@H](CC)[C@@H](O)[C@H](C)C/C(C)=C/C=C/[C@@H]2OC)C[C@H](OC2CC(O)C(O)C(C)O2)[C@@H]1C (stereo not given in full)	0.336 µM	18.1 µM	15.7 µM	0.0828 µM	10.4 µM		< 0.0075 µM	2.92 µM		25.6 µM	< 0.0075 µM
CCNC(C)Cc1ccccc1 (stereo not given)		> 100 µM	> 100 µM	> 100 µM	> 100 µM	> 100 µM	> 100 µM	> 100 µM		> 100 µM	> 100 µM
NC(Cc1ccc(S(=O)(=O)O)cc1)C(=O)NC(CCCCNC(=O)NCCCCC(NC(=O)C(N)Cc1ccc(S(=O)(=O)O)cc1)C(=O)NC(Cc1ccc(S(=O)(=O)O)cc1)C(=O)O)C(=O)NC(Cc1ccc(S(=O)(=O)O)cc1)C(=O)O (stereo not given)	> 100 µM	> 100 µM		> 100 µM	> 100 µM	> 100 µM	> 100 µM	> 100 µM		> 100 µM	> 100 µM
COc1cc2c[n+](C)c3c4cc(OC)c(OC)cc4c(OC)cc3c2cc1OC	12.2 µM		> 100 µM	14.9 µM	> 100 µM	> 86 µM	> 100 µM	> 74.6 µM		18.7 µM	
COc1cc(Cc2cc3c(c(C(=O)O)c2Br)OCO3)cc(OC)c1OC	> 100 µM	> 100 µM	> 100 µM	> 100 µM	> 100 µM	> 100 µM		> 100 µM			62.2 µM
COc1ccc(Oc2cccc(/C=C3/C(=O)Nc4ccccc43)c2)cc1	9.75 µM	22.8 µM	19.1 µM	11.3 µM	19.9 µM	23 µM		24.1 µM		24.1 µM	12.5 µM
CC(=O)OC12/C(=N/O)CCCCCC1c1ccccc12 (stereo not given)		> 100 µM	> 100 µM	> 100 µM	> 100 µM	> 100 µM	> 100 µM	> 100 µM		> 100 µM	> 100 µM
